Consider 17 compounds from US9012443B2 (Amgen Inc., priority 2011, dated 2015).

Test [1] has as its target T1, Nav 1.7 (Homo sapiens (Human), UniProt Q15858). The experiment in a line: Nav 1.7 IWQ in vitro assay (IonWorks Quattro population patch-clamp). Type of test: cell-based. To be noted: for IC50: 293 cells stably transfected with Nav 1.7, second part of table, read-out: Nav1.7 IWQ IC50 IP. A digest of the protocol: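 Percent block, measured in duplicate, came from peak minus end-of-pulse current on the 26th −20 mV step, and IC50 was fitted against concentration. Stably transfected 293 cells were recorded in population patch-clamp mode before and after a single test concentration, which was added over 3–8 min while cells were unclamped.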

Test [2] concerns the target T1, Nav 1.7. The test is described as follows: Nav 1.7 in vitro PX assay (PatchXpress whole cell voltage clamp). Type of test: cell-based. To be noted: 293 cells, human Nav1.7, partially inactivated state; read-out: Nav1.7 PX IC50 IP. A digest of the protocol: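 Partially inactivated channel state (holding potential for 20–50% inactivation) probed in human Nav1.7-transfected 293 cells by automated patch clamp, test pulse −10 mV for 20 msec.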

T1 sequence (Q15858 whole entry): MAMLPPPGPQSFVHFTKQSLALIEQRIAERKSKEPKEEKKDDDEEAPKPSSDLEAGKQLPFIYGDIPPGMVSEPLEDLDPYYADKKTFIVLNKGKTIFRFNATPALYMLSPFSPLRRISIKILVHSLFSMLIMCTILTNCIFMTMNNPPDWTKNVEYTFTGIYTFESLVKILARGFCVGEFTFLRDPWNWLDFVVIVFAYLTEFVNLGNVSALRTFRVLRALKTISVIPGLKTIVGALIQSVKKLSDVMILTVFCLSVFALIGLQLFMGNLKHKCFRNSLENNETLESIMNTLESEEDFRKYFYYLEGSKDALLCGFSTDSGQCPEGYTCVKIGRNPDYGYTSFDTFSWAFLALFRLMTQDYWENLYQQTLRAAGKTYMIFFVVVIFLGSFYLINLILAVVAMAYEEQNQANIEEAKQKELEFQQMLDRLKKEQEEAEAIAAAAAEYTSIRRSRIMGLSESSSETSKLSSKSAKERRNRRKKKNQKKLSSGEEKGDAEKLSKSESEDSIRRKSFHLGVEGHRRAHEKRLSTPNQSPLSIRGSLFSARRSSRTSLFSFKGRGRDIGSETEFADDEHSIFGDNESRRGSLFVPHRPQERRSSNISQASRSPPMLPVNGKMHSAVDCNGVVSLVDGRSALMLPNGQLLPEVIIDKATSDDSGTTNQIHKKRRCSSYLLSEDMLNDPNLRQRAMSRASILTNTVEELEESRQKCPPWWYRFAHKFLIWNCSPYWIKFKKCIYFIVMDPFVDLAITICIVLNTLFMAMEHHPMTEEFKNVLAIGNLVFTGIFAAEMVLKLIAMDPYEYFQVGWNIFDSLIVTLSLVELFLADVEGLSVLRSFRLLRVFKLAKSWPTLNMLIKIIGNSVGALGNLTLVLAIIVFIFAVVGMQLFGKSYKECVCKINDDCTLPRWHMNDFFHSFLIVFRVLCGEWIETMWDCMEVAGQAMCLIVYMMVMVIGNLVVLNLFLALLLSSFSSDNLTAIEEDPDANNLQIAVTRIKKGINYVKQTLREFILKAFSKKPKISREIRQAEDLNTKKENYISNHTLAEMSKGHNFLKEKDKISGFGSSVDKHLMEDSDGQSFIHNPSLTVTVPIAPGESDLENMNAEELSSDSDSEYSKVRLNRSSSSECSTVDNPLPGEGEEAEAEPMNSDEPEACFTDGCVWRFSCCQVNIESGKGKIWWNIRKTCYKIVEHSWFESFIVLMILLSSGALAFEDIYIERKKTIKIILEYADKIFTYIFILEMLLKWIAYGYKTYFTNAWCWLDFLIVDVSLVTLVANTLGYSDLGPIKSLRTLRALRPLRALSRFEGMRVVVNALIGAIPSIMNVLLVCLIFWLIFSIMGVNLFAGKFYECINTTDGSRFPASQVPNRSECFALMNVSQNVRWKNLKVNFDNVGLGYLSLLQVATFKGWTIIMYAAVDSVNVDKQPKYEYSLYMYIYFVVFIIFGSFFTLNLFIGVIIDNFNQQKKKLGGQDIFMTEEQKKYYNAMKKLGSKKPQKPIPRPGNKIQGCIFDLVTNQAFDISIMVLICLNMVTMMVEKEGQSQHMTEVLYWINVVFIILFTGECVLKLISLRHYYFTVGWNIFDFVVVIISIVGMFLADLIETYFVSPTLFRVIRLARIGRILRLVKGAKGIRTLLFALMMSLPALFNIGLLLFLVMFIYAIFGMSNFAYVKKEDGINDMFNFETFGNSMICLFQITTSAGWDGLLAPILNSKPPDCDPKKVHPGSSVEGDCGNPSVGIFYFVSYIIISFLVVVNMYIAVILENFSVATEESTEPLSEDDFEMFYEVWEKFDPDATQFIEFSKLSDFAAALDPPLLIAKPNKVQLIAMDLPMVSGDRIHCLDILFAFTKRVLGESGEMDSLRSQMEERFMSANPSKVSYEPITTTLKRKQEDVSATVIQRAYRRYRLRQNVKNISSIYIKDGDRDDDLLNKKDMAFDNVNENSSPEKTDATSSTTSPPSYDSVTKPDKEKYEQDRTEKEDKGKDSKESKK

For `O=S(=O)(Nc1ncns1)c1ccc2c(N3CCC[C@@H]3c3cccnc3)cccc2c1` (single isomer, unassigned) [Example 87], the half-maximal inhibitory concentration (IC50) was determined as 460 nM on Nav 1.7 [1] and 1320 nM at Nav 1.7 [2]. In the same order, the values of `O=S(=O)(Nc1ncns1)c1ccc2c(N3CCC[C@H]3c3ccncc3)cccc2c1` (single isomer, unassigned) [Example 89] are 290 nM and 2330 nM. In the same order, the values of `CN1CCN(c2cc(C(F)(F)F)ccc2-c2cccc3cc(S(=O)(=O)Nc4nccs4)ccc23)CC1` [Example 84, 5-(2-(4-METHYLPIPERAZIN-1-YL)-4-(TRIFLUOROMETHYL)PHENYL)-N-(THIAZOL-2-YL)NAPHTHALENE-2-SULFONAMIDE 2,2,2-TRIFLUOROACETATE] are 110 nM and 588 nM. Taken in the same sequence, the figures for `O=S(=O)(Nc1ncns1)c1ccc2c(N3CCCC3c3cccnc3)cccc2c1` (centres unmarked) [Example 85] were 10 nM and 173 nM.

Consider `O=S(=O)(Nc1ncns1)c1ccc2c(N3CCCC3c3ccncc3)cccc2c1` (centres unmarked) [Example 88], for which the results for the 50% inhibitory concentration (IC50) on Nav 1.7 [1] and at Nav 1.7 [2] were 20 nM and 238 nM, respectively. On to `CC1CCCN1c1cccc2cc(S(=O)(=O)Nc3ncns3)ccc12` (centres unmarked) [Example 91], for which the IC50 on Nav 1.7 [1] was 270 nM; on Nav 1.7 [2], 1470 nM. For `COc1ccccc1-c1cccc2cc(S(=O)(=O)Nc3ncns3)ccc12` [Example 94], the figures for the IC50 on Nav 1.7 [1] and on Nav 1.7 [2] were 10 nM and 57.2 nM, respectively. Taken in the same sequence, the figures for `O=S(=O)(Nc1ncns1)c1ccc2c(C3CCCN3)cccc2c1` (centres unmarked) [Example 95, 5-(PYRROLIDIN-2-YL)-N-(1,2,4-THIADIAZOL-5-YL)NAPHTHALENE-2-SULFONAMIDE 2,2,2-TRIFLUOROACETATE] were 540 nM and 7960 nM. Regarding `O=S(=O)(Nc1ncns1)c1ccc2c(C3CCCN3c3ccccn3)cccc2c1` (centres unmarked) [Example 96], the IC50 on Nav 1.7 [1] is 80 nM; at Nav 1.7 [2], 323 nM. In the same order, the values of `O=S(=O)(Nc1ncns1)c1ccc2c(C3CCCN3Cc3ccccc3)cccc2c1` (centres unmarked) [Example 97] are 460 nM and 2220 nM. Consider `O=S(=O)(Nc1nccs1)c1ccc2c(C3CCCN3Cc3ccccc3)cccc2c1` (centres unmarked) [Example 98], for which the IC50 on Nav 1.7 [1] came out at 2220 nM; on Nav 1.7 [2], 13000 nM. Taken in the same sequence, the figures for `O=S(=O)(Nc1ncns1)c1ccc2c(NCc3ccccc3)cccc2c1` [Example 99, 5-(benzylamino)-N-(1,2,4-thiadiazol-5-yl)naphthalene-2-sulfonamide] were 1180 nM and 4450 nM. Regarding `O=S(=O)(Nc1nccs1)c1ccc2c(N3CCCCC3c3cccnc3)ncnc2c1` (centres unmarked) [Example 536, 4-(2-(PYRIDIN-3-YL)PIPERIDIN-1-YL)-N-(THIAZOL-2-YL)QUINAZOLINE-7-SULFONAMIDE], the “Nav1.7 Single Point Data IWQ (at […]) (%)” value on Nav 1.7 [1] is listed as 28.3%.

As to `O=S(=O)(Nc1nccs1)c1ccc2c(N3CCCC3c3ccccc3)ncnc2c1` (centres unmarked) [Example 537, 4-(2-PHENYLPYRROLIDIN-1-YL)-N-(THIAZOL-2-YL)QUINAZOLINE-7-SULFONAMIDE], the “Nav1.7 Single Point Data IWQ (at […]) (%)” value on Nav 1.7 [1] turned out to be 41.2%.

Take `O=S(=O)(Nc1nccs1)c1ccc2c(N3CCCCC3c3ccccc3)ncnc2c1` (centres unmarked) [Example 538, 4-(2-PHENYLPIPERIDIN-1-YL)-N-(THIAZOL-2-YL)QUINAZOLINE-7-SULFONAMIDE]: the “Nav1.7 Single Point Data IWQ (at […]) (%)” value at Nav 1.7 [1] stood at 31.2%. Still for that read-out and setting: with `O=S(=O)(Nc1ncns1)c1ccc2c(N3CCCC3c3ccncc3)ncnc2c1` (centres unmarked) [Example 539, 4-(2-(PYRIDIN-4-YL)PYRROLIDIN-1-YL)-N-(1,2,4-THIADIAZOL-5-YL)QUINAZOLINE-7-SULFONAMIDE] the figure was 20.3%.

With `COc1cc(C(F)(F)F)ccc1-c1c(O)ncc2cc(S(=O)(=O)Nc3nccs3)ccc12` [Example 545, 3-HYDROXY-4-(2-METHOXY-4-(TRIFLUOROMETHYL)PHENYL)-N-(THIAZOL-2-YL)ISOQUINOLINE-7-SULFONAMIDE], the “Nav1.7 Single Point Data IWQ (at […]) (%)” value on Nav 1.7 [1] is 23.7%.
